Experimental data: BindingDB's records for doi:10.1021/jm0304358 (Yale University, 2004)

Target: Cyclin-dependent kinase 2 (Homo sapiens, UniProt P24941)
Assay: Evaluated for inhibition of human cyclin dependent kinase 2 (CDK2)

| SMILES | IC50 |
| --- | --- |
| O=C1Nc2ccc3ncsc3c2C1C=Nc1ccc(S(=O)(=O)NCc2ccccc2)cc1 (stereo not given) [N-Benzyl-4-{[(7-oxo-6,7-dihydro-8H-[1,3]thiazolo[5,4-e]-indol-8-ylidene)methyl]amino}benzenesulfonamide] | 0.0056 µM |
| CNS(=O)(=O)c1ccc(N=CC2C(=O)Nc3ccc4ncsc4c32)cc1 (stereo not given) [N-Methyl-4-{[(7-oxo-6,7-dihydro-8H-[1,3]thiazolo[5,4-e]-indol-8-ylidene)methyl]amino}benzenesulfonamide] | 0.0056 µM |

Results, then the molecule that gave them:

| IC50 | SMILES |
| --- | --- |
| > 10 µM | Cc1cccc2c1NC(=O)C2C=Nc1ccc(S(N)(=O)=O)cc1 (stereo not given) |
| > 10 µM | Cc1cc(Cl)cc2c1NC(=O)C2C=Nc1ccc(S(N)(=O)=O)cc1 (stereo not given) |
| 0.31 µM | CN(C)c1ccc2c(c1)C(C=Nc1ccc(S(N)(=O)=O)cc1)C(=O)N2 (stereo not given) [4-({[5-(Dimethylamino)-2-oxo-1,2-dihydro-3H-indol-3-ylidene]methyl}amino)benzenesulfonamide] |
